Measured values reported in PMC3559007 (Neuron, 2013).
Residue numbers refer to the chain shown, from its start. Where two headings read alike, the source gives them in different places. Values belong to the compound of their own block, whether it stands above or below them.

Columns and labels:
[1] = target: T1, human Hv1 channel (Homo sapiens, UniProt Q96D96); test: Inside-out patch clamp of proton currents, Xenopus oocytes expressing human Hv1; assay type: cell-based; settings: for Inhibition of Hv1 proton current compared with 2GBI: 200 µM intracellular, inside-out patch, +120 mV
T1 sequence (Q96D96 1-273): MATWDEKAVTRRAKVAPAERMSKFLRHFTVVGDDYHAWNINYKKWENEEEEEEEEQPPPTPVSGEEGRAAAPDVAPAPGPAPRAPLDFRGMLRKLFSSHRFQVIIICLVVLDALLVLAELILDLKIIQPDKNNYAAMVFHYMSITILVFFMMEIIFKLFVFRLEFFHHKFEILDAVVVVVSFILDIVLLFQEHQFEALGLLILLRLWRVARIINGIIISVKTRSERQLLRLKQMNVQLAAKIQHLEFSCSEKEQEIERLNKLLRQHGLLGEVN

[2] = target: T2, Hv1 F150A (Homo sapiens, UniProt Q96D96, F150A); test: Inside-out patch clamp, inhibition of Hv1 F150A mutant; assay type: cell-based; settings: 1 µM 2GBI, 500 µM guanidinium, 7.9 mM magnesium, intracellular
T2 sequence (Q96D96 1-273 F150A): T1 sequence (Q96D96 1-273) with F150A

[3] = target: T1, human Hv1 channel; settings: cited from earlier work; for Inhibition of Hv1 channel by intracellular quaternary ammonium ions: ref Musset et al., 2011, Ramsey et al., 2006
[4] = tested on: F150A-WT linked Hv1 heterodimers; test: Inside-out patch clamp, partial block of linked F150A-WT Hv1 heterodimers; assay type: cell-based, human; settings: 2 µM 2GBI, +120 mV

Inhibition of Hv1 proton current compared with 2GBI [1]: not as effective as 2GBI
SMILES: CC(=O)N(C(=N)NC(=N)N)c1ccccc1 [Compound 10, N-(guanidino-imino-methyl)-N-phenylacetamide]

IC50 [1]: ~9 mM
SMILES: N=C(N)Nc1nc2ccccc2o1 [Compound 11, 1-(1,3-benzoxazol-2-yl)guanidine]

Inhibition of Hv1 proton current compared with 2GBI [1]: almost as effectively as 2GBI
SMILES: N=C(N)Nc1nc2ccccc2s1 [Compound 12, 1-(1,3-benzothiazol-2-yl)guanidine]

IC50 ([1]; wild type Hv1, GBOZ curve extrapolated above solubility limit): ~9 mM | Difference in binding affinity between F150A and wild type channels [2]: no difference
SMILES: [Mg+2] [magnesium, reference compound]

The next lines start with the compound.

SMILES: N=C(N)N [Compound 1, Guanidine]
Concentration range effective at inhibiting proton currents [1]: millimolar concentration range | Difference in binding affinity between F150A and wild type channels [2]: much smaller difference | Inhibition of Hv1 and effect on activation curve ([3]; ref Tombola et al., 2008): inhibit Hv1 without shifting the channel’s activation curve

SMILES: N=C(N)Nc1nc2ccccc2[nH]1 [Compound 7, 2-guanidinobenzimidazole]
Total inhibition of the initial current [4]: ~ 50% | Estimated fraction of wild type subunits blocked ([4]; estimated from dissociation constants of homodimers): ~6%

SMILES: CN(C)C(=N)N=C(N)N [Compound 8, metformin, reference compound]
Inhibition of Hv1 proton current compared with 2GBI [1]: not as effective as 2GBI

SMILES: Cc1nc(NC(=N)N)nc2ccccc12 [Compound 9, 2-guanidino-4-methylquinazoline]
Inhibition of Hv1 proton current compared with 2GBI [1]: not as effective as 2GBI

SMILES: CC[N+](CC)(CC)CC [TEA^+, tetraethylammonium]
Inhibition of Hv1 channel by intracellular quaternary ammonium ions [3]: do not inhibit

SMILES: C[N+](C)(C)C [TMA^+]
Inhibition of Hv1 channel by intracellular quaternary ammonium ions [3]: do not inhibit
